From patent publication US9540343B2 (Gilead Sciences, Inc., priority 2011, dated 2017) come the findings set out here.

In general, CC50 refers to the concentration giving 50% cytotoxicity. Low values mean harm at low concentration, high ones better tolerance by the cells. In general, inhibition refers to the drop in the measured response relative to a control, in per cent. For orientation: % inhibition means how much of the control response was suppressed.

Molecules are shown by their SMILES.

The nature of one data set: in vitro. To be noted: human, uninfected MT-4 cells, CC50 (nM), same protocol as Test A, CellTiter-Glo. A digest of the protocol: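 Cytoprotection read-out: CellTiter-Glo chemiluminescence after 5 days at 37 °C of HIV-IIIb-infected MT-4 cells (m.o.i. 0.003) with compound in 10-point 3-fold dilutions, quadruplicate, 10% FBS. Cytotoxicity (CC50) measured identically without virus.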

The next data set deals with HIV-IIIb. The data set is described as follows: Test A: Antiviral assay in MT4 cells. The data set is classed as cell-based, HIV-1. To be noted: MT-4 cells infected with HIV-IIIb, 5 days, CellTiter-Glo; for inhibition at 2 µM: Human immunodeficiency virus 1, IIIB, MT4, 120 h, read-out: % inhibition at 2 μM, percent inhibition of virus-induced cell killing, from dose response curve at 2 uM drug. For orientation: Cellular ATP, detected with luciferase, serves as a proxy for viable cell number.

In the data set “in vitro”, `NC(=O)c1cccc(-c2cccnc2[C@H](Cc2cc(F)cc(F)c2)NC(=O)Cn2ccc3cc(F)c(F)cc32)c1` [Example 594B, (S)-3-(2-(1-(2-(5,6-difluoro-1H-indol-1-yl)acetamido)-2-(3,5-difluorophenyl)ethyl)pyridin-3-yl)benzamide] registered a cytotoxic concentration (CC50) at 5 days of 13400 nM. The inhibition at 2 µM in the data set on HIV-IIIb amounted to 12%.
Turning to `NC(=O)c1cccc(-c2cccnc2[C@H](Cc2cc(F)cc(F)c2)NC(=O)Cn2ccc3cnc(N)nc32)c1` [Example 226C, (S)-3-(2-(1-(2-(2-amino-7H-pyrrolo[2,3-d]pyrimidin-7-yl)acetamido)-2-(3,5-difluorophenyl)ethyl)pyridin-3-yl)benzamide], in “in vitro”, the CC50 at 5 days is > 53000 nM. Besides, the inhibition at 2 µM in the data set on HIV-IIIb was determined as 0%.
Compound `CCc1cc(C(F)(F)F)nn1CC(=O)N[C@@H](Cc1cc(F)cc(F)c1)c1ncccc1-c1ccc(F)c(C(N)=O)c1` [Example 461, (S)-5-(2-(2-(3,5-difluorophenyl)-1-(2-(5-ethyl-3-(trifluoromethyl)-1H-pyrazol-1-yl)acetamido)ethyl)pyridin-3-yl)-2-fluorobenzamide] yielded a cytotoxic concentration (CC50) at 5 days in “in vitro” of 32000 nM. In addition, in the data set on HIV-IIIb, the inhibition at 2 µM was 25%.
Consider `NC(=O)c1cc(-c2cccnc2[C@H](Cc2cc(F)cc(F)c2)NC(=O)Cc2c[nH]c3c(F)cc(F)cc23)ccc1F` [Example 530E, (S)-5-(2-(1-(2-(5,7-difluoro-1H-indol-3-yl)acetamido)-2-(3,5-difluorophenyl)ethyl)pyridin-3-yl)-2-fluorobenzamide], for which it took 15300 nM to reach half-maximal cytotoxicity in the data set “in vitro” (CC50 at 5 days). Also, in the data set with HIV-IIIb, the inhibition at 2 µM worked out at 55%.
For `CCc1c(Br)c(C(F)(F)F)nn1CC(=O)N[C@@H](Cc1cc(F)cc(F)c1)c1ncccc1-c1ccc(F)c(C(N)=O)c1` [Example 58D, (S)-5-(2-(1-(2-(4-bromo-5-ethyl-3-(trifluoromethyl)-1H-pyrazol-1-yl)acetamido)-2-(3,5-difluorophenyl)ethyl)pyridin-3-yl)-2-fluorobenzamide], in that order: 10000 nM and 14%.
Regarding `O=C(Cc1c[nH]c2ccc(F)cc12)N[C@@H](Cc1cc(F)cc(F)c1)c1ncccc1-c1cccnc1` [Example 439, (S)—N-(1-(3,3′-bipyridin-2-yl)-2-(3,5-difluorophenyl)ethyl)-2-(5-fluoro-1H-indol-3-yl)acetamide], it took 21700 nM to reach half-maximal cytotoxicity in “in vitro” (CC50 at 5 days). In addition, the inhibition at 2 µM with HIV-IIIb was -2%.
Regarding `NS(=O)(=O)c1ccc(-c2cccnc2[C@H](Cc2cc(F)cc(F)c2)NC(=O)Cc2c[nH]c3ccc(O)cc23)cc1` [Example 43, (S)—N-(2-(3,5-difluorophenyl)-1-(3-(4-sulfamoylphenyl)pyridin-2-yl)ethyl)-2-(5-hydroxy-1H-indol-3-yl)acetamide], in the data set “in vitro”, the CC50 at 5 days was > 53000 nM. Also, the inhibition at 2 µM in the data set with HIV-IIIb was 28%.
The like results for `NC(=O)c1cc(-c2cncnc2[C@H](Cc2cc(F)cc(F)c2)NC(=O)Cn2nc(C(F)F)c3c2C(F)(F)CCC3(F)F)ccc1F` [Example 308, (S)-5-(4-(1-(2-(3-(difluoromethyl)-4,4,7,7-tetrafluoro-4,5,6,7-tetrahydro-1H-indazol-1-yl)acetamido)-2-(3,5-difluorophenyl)ethyl)pyrimidin-5-yl)-2-fluorobenzamide] were, in that order, 39800 nM and 102%.
`CN(C)C(C(=O)N[C@@H](Cc1cc(F)cc(F)c1)c1ncccc1-c1ccc(F)c(C(N)=O)c1)c1ccc(F)cc1` (single isomer, unassigned) [Example 503]: the 50% cytotoxic concentration (CC50) at 5 days in “in vitro” was determined as 40400 nM. Besides, the “% inhibition at 2 μM” value with HIV-IIIb (percent inhibition of virus-induced cell killing, from dose response curve at 2 uM drug) was 3%.
In turn, `O=C(Cn1nc(C(F)(F)F)c2c1CCCC2)N[C@@H](Cc1cc(F)cc(F)c1)c1ncccc1-c1ccc(S(=O)(=O)N2CCOCC2)cc1` [Example 105, (S)—N-(2-(3,5-difluorophenyl)-1-(3-(4-(morpholinosulfonyl)phenyl)pyridin-2-yl)ethyl)-2-(3-(trifluoromethyl)-4,5,6,7-tetrahydro-1H-indazol-1-yl)acetamide] came in with a CC50 at 5 days in the data set “in vitro” of 9080 nM. Also, the inhibition at 2 µM with HIV-IIIb came to 99%.
`O=C(Cn1nc(C(F)F)c2c1C(F)(F)C1CC21)N[C@@H](Cc1cc(F)cc(F)c1)c1ncccc1-c1cnc2nccnc2c1` (stereo partly drawn) [Example 85, (S)—N-(1-(3-(pyrido[2,3-b]pyrazin-7-yl)-pyridin-2-yl)-2-(3,5-difluorophenyl)ethyl)-2-(3-(difluoromethyl)-5,6-dihydro-4,5-(methano)-6,6-difluoro-cyclopenta[c]pyrazol-1(4H)-yl)acetamide] had a CC50 at 5 days in the data set “in vitro” of 43000 nM. The inhibition at 2 µM in the data set with HIV-IIIb was found to be 9%.
Regarding `O=C(Cc1c[nH]c2ccc(F)cc12)NC(Cc1cc(F)cc(F)c1)c1nccnc1-c1ccc(Cl)cc1` (stereo not drawn) [Example 459, N-(1-(3-(4-chlorophenyl)pyrazin-2-yl)-2-(3,5-difluorophenyl)ethyl)-2-(5-fluoro-1H-indol-3-yl)acetamide], the cytotoxic concentration (CC50) at 5 days in “in vitro” worked out at 14200 nM. For the same compound, the inhibition at 2 µM with HIV-IIIb turned out to be 28%.
For `CNC(=O)c1ccc(-c2cccnc2[C@H](Cc2cc(F)cc(F)c2)NC(=O)Cc2c[nH]c3ccc(O)cc23)cc1` [Example 45, (S)-4-(2-(2-(3,5-difluorophenyl)-1-(2-(5-hydroxy-1H-indol-3-yl)acetamido)ethyl)pyridin-3-yl)-N-methylbenzamide], in that order: > 53000 nM and 32%.
With `CCOC(=O)N1CCCC1C(=O)N[C@@H](Cc1cc(F)cc(F)c1)c1ncccc1-c1ccc(F)c(C(N)=O)c1` (stereo partly drawn) [Example 128, ethyl 2-((S)-1-(3-(3-carbamoyl-4-fluorophenyl)pyridin-2-yl)-2-(3,5-difluorophenyl)ethylcarbamoyl)pyrrolidine-1-carboxylate], in “in vitro”, the midpoint of cytotoxicity, the CC50 at 5 days, lay at 23500 nM. For the same compound, the inhibition at 2 µM in the data set on HIV-IIIb worked out at 7%.
The like results for `O=C(Cn1nc(C(F)F)cc1C(F)F)N[C@@H](Cc1cc(F)cc(F)c1)c1ncccc1-c1ccc(S(=O)(=O)N2CCOCC2)cc1` [Example 539, (S)-2-(3,5-bis(difluoromethyl)-1H-pyrazol-1-yl)-N-(2-(3,5-difluorophenyl)-1-(3-(4-(morpholinosulfonyl)phenyl)pyridin-2-yl)ethyl)acetamide] were, in that order, 20800 nM and 10%.
For the compound `NC(=O)c1cc(-c2cccnc2[C@H](Cc2cccc(F)c2)NC(=O)Cn2nc(C(F)(F)F)c3c2CCCC3)ccc1F` [Example 229, (S)-2-fluoro-5-(2-(2-(3-fluorophenyl)-1-(2-(3-(trifluoromethyl)-4,5,6,7-tetrahydro-1H-indazol-1-yl)acetamido)ethyl)pyridin-3-yl)benzamide], the cytotoxic concentration (CC50) at 5 days in the data set “in vitro” is 18600 nM. Further, the inhibition at 2 µM in the data set with HIV-IIIb is 95%.
In turn, `COc1nc2c(CC(=O)N[C@@H](Cc3cc(F)cc(F)c3)c3ncccc3-c3cccc(C(N)=O)c3)c[nH]c2cc1C` [Example 360E, (S)-3-(2-(2-(3,5-difluorophenyl)-1-(2-(5-methoxy-6-methyl-1H-pyrrolo[3,2-b]pyridin-3-yl)acetamido)ethyl)pyridin-3-yl)benzamide] gave a CC50 at 5 days in “in vitro” of 13100 nM. Moreover, the inhibition at 2 µM in the data set on HIV-IIIb turned out to be 55%.
For the compound `NC(=O)c1cc(-c2cccnc2[C@H](Cc2cc(F)cc(F)c2)NC(=O)Cn2nc(C(F)F)c3c2CC2CC32)ccc1F` (stereo partly drawn) [Example 198, 5-(2-((1S)-1-(2-(3-(difluoromethyl)-3b,4,4a,5-tetrahydro-1H-cyclopropa[3,4]cyclopenta[1,2-c]pyrazol-1-yl)acetamido)-2-(3,5-difluorophenyl)ethyl)pyridin-3-yl)-2-fluorobenzamide], the CC50 at 5 days in the data set “in vitro” worked out at 45900 nM. Moreover, in the data set with HIV-IIIb, the inhibition at 2 µM amounted to 112%.
